Experiment: xn = mol fraction of the nth substance listed
Conditions: 101 kPa, Liquid; for speed of sound: Sing-around technique in a fixed-path interferometer; for kinematic viscosity: Vibrating wire viscometry; for mass density: Vibrating tube method

OCCCCO [1,4-butanediol] + CCCCO
Conditions | kinematic viscosity [m2/s] | mass density [kg/m3] | speed of sound [m/s]
293.02 K, x1 = 1 | – | – | 1614.9
293.03 K, x1 = 0.7946 | – | – | 1537.8
293.05 K, x1 = 0.6478 | – | – | 1482.1
293.05 K, x1 = 0.9234 | – | – | 1586.4
293.06 K, x1 = 0.3571 | – | – | 1375.1
293.06 K, x1 = 0.4979 | – | – | 1426
293.07 K, x1 = 0.2 | – | – | 1321
293.08 K, x1 = 0.051 | – | – | 1272.7
298.01 K, x1 = 1 | 6.99e-05 | – | –
298.06 K, x1 = 0.4592 | 1.56e-05 | – | –
298.06 K, x1 = 1 | – | – | 1602.6
298.07 K, x1 = 0.1507 | 5.44e-06 | – | –
298.07 K, x1 = 0.9374 | 6e-05 | – | –
298.08 K, x1 = 0.2 | – | – | 1304.8
298.08 K, x1 = 0.5676 | 2.18e-05 | – | –
298.08 K, x1 = 0.6478 | – | – | 1468.3
298.08 K, x1 = 0.7946 | – | – | 1524.7
298.09 K, x1 = 0.3571 | – | – | 1359.7
298.09 K, x1 = 0.7435 | 3.62e-05 | – | –
298.1 K, x1 = 0.051 | – | – | 1255.7
298.1 K, x1 = 0.4979 | – | – | 1411.3
298.1 K, x1 = 0.6576 | 2.84e-05 | – | –
298.1 K, x1 = 0.8108 | 4.34e-05 | – | –
298.1 K, x1 = 0.9234 | – | – | 1573.9
298.14 K, x1 = 0.2986 | 9.22e-06 | – | –
298.15 K, x1 = 0.1507 | – | 837.834 | –
298.15 K, x1 = 0.2986 | – | 869.164 | –
298.15 K, x1 = 0.4592 | – | 902.986 | –
298.15 K, x1 = 0.5676 | – | 925.394 | –
298.15 K, x1 = 0.6576 | – | 943.952 | –
298.15 K, x1 = 0.7435 | – | 961.447 | –
298.15 K, x1 = 0.8108 | – | 974.991 | –
298.15 K, x1 = 0.9374 | – | 1000.24 | –
298.15 K, x1 = 1 | – | 1012.72 | –
302.51 K, x1 = 1 | 5.63e-05 | – | –
302.99 K, x1 = 0.9374 | 4.76e-05 | – | –
303 K, x1 = 0.6576 | 2.33e-05 | – | –
303.01 K, x1 = 0.1507 | 4.68e-06 | – | –
303.01 K, x1 = 0.5676 | 1.8e-05 | – | –
303.01 K, x1 = 0.7435 | 2.93e-05 | – | –
303.01 K, x1 = 0.8108 | 3.49e-05 | – | –
303.04 K, x1 = 0.4592 | 1.3e-05 | – | –
303.06 K, x1 = 0.2986 | 7.83e-06 | – | –
303.15 K, x1 = 0.1507 | – | 834.13 | –
303.15 K, x1 = 0.2986 | – | 865.589 | –
303.15 K, x1 = 0.4592 | – | 899.553 | –
303.15 K, x1 = 0.5676 | – | 922.055 | –
303.15 K, x1 = 0.6576 | – | 940.685 | –
303.15 K, x1 = 0.7435 | – | 958.245 | –
303.15 K, x1 = 0.8108 | – | 971.848 | –
303.15 K, x1 = 0.9374 | – | 997.175 | –
303.15 K, x1 = 1 | – | 1009.69 | –
303.3 K, x1 = 1 | – | – | 1590.1
303.36 K, x1 = 0.2 | – | – | 1287.8
303.36 K, x1 = 0.4979 | – | – | 1396.1
303.36 K, x1 = 0.7946 | – | – | 1511
303.36 K, x1 = 0.9234 | – | – | 1561
303.37 K, x1 = 0.051 | – | – | 1238
303.37 K, x1 = 0.3571 | – | – | 1343.7
303.39 K, x1 = 0.6478 | – | – | 1453.8
308.06 K, x1 = 1 | 4.37e-05 | – | –
308.15 K, x1 = 0.1507 | – | 830.397 | –
308.15 K, x1 = 0.2986 | – | 861.995 | –
308.15 K, x1 = 0.4592 | – | 896.107 | –
308.15 K, x1 = 0.5676 | – | 918.702 | –
308.15 K, x1 = 0.6576 | – | 937.408 | –
308.15 K, x1 = 0.7435 | – | 955.036 | –
308.15 K, x1 = 0.8108 | – | 968.692 | –
308.15 K, x1 = 0.9374 | – | 994.107 | –
308.15 K, x1 = 1 | – | 1006.66 | –
308.16 K, x1 = 0.9374 | 3.79e-05 | – | –
308.17 K, x1 = 0.6576 | 1.9e-05 | – | –
308.18 K, x1 = 0.4592 | 1.09e-05 | – | –
308.19 K, x1 = 0.8108 | 2.8e-05 | – | –
308.22 K, x1 = 0.1507 | 3.96e-06 | – | –
308.22 K, x1 = 0.2986 | 6.63e-06 | – | –
308.23 K, x1 = 0.5676 | 1.48e-05 | – | –
308.24 K, x1 = 0.7435 | 2.37e-05 | – | –
308.32 K, x1 = 0.7946 | – | – | 1498.4
308.32 K, x1 = 1 | – | – | 1578.3
308.33 K, x1 = 0.051 | – | – | 1221.5
308.33 K, x1 = 0.9234 | – | – | 1548.9
308.35 K, x1 = 0.3571 | – | – | 1328.7
308.35 K, x1 = 0.4979 | – | – | 1381.9
308.36 K, x1 = 0.2 | – | – | 1272
308.38 K, x1 = 0.6478 | – | – | 1440.3
313.12 K, x1 = 1 | 3.51e-05 | – | –
313.15 K, x1 = 0.1507 | – | 826.639 | –
313.15 K, x1 = 0.2986 | – | 858.379 | –
313.15 K, x1 = 0.4592 | – | 892.64 | –
313.15 K, x1 = 0.5676 | – | 915.331 | –
313.15 K, x1 = 0.6576 | – | 934.116 | –
313.15 K, x1 = 0.7435 | – | 951.814 | –
313.15 K, x1 = 0.8108 | – | 965.521 | –
313.15 K, x1 = 0.9374 | – | 991.027 | –
313.15 K, x1 = 1 | – | 1003.63 | –
313.19 K, x1 = 0.9374 | 3.06e-05 | – | –
313.2 K, x1 = 0.6757 | 1.57e-05 | – | –
313.21 K, x1 = 0.5676 | 1.24e-05 | – | –
313.23 K, x1 = 0.4592 | 9.16e-06 | – | –
313.23 K, x1 = 0.7435 | 1.95e-05 | – | –
313.23 K, x1 = 0.8108 | 2.29e-05 | – | –
313.26 K, x1 = 0.1507 | 3.36e-06 | – | –
313.29 K, x1 = 0.2986 | 5.65e-06 | – | –
313.32 K, x1 = 0.051 | – | – | 1204.9
313.33 K, x1 = 0.7946 | – | – | 1485.7
313.35 K, x1 = 1 | – | – | 1566.5
313.36 K, x1 = 0.3571 | – | – | 1313.8
313.36 K, x1 = 0.9234 | – | – | 1536.8
313.37 K, x1 = 0.2 | – | – | 1256.2
313.37 K, x1 = 0.4979 | – | – | 1367.6
313.39 K, x1 = 0.6478 | – | – | 1426.9
318.15 K, x1 = 0.1507 | – | 822.854 | –
318.15 K, x1 = 0.2986 | – | 854.74 | –
318.15 K, x1 = 0.4592 | – | 889.157 | –
318.15 K, x1 = 0.5676 | – | 911.95 | –
318.15 K, x1 = 0.6576 | – | 930.812 | –
318.15 K, x1 = 0.7435 | – | 948.578 | –
318.15 K, x1 = 0.8108 | – | 962.345 | –
318.15 K, x1 = 0.9374 | – | 987.943 | –
318.15 K, x1 = 1 | – | 1000.58 | –
318.29 K, x1 = 0.051 | – | – | 1188.5
318.3 K, x1 = 0.7946 | – | – | 1473.1
318.35 K, x1 = 0.3571 | – | – | 1299.1
318.35 K, x1 = 0.4979 | – | – | 1353.5
318.35 K, x1 = 1 | – | – | 1554.8
318.36 K, x1 = 0.9234 | – | – | 1525
318.38 K, x1 = 0.2 | – | – | 1240.6
318.38 K, x1 = 0.6478 | – | – | 1413.6
318.56 K, x1 = 0.8108 | 1.87e-05 | – | –
318.72 K, x1 = 1 | 2.79e-05 | – | –
318.73 K, x1 = 0.9374 | 2.45e-05 | – | –
318.74 K, x1 = 0.6575 | 1.29e-05 | – | –
318.75 K, x1 = 0.5676 | 1.03e-05 | – | –
318.75 K, x1 = 0.7435 | 1.59e-05 | – | –
318.76 K, x1 = 0.4592 | 7.65e-06 | – | –
318.8 K, x1 = 0.1507 | 2.79e-06 | – | –
318.81 K, x1 = 0.2986 | 4.76e-06 | – | –

CCCCO [butan-1-ol] + OCCCCO
x2 = 0
Conditions | kinematic viscosity [m2/s] | mass density [kg/m3] | speed of sound [m/s]
293.03 K | – | – | 1257
298.02 K | 3.24e-06 | – | –
298.07 K | – | – | 1239.7
298.15 K | – | 805.77 | –
302.47 K | 2.9e-06 | – | –
303.15 K | – | 801.928 | –
303.35 K | – | – | 1221.6
308 K | 2.53e-06 | – | –
308.15 K | – | 798.054 | –
308.34 K | – | – | 1204.8
312.96 K | 2.25e-06 | – | –
313.15 K | – | 794.146 | –
313.37 K | – | – | 1188
318.15 K | – | 790.196 | –
318.37 K | – | – | 1171.4
318.61 K | 1.99e-06 | – | –

Source: the NIST ThermoML archive (doi:10.1016/j.jct.2009.09.013)
